# According to patent US12522623B2, “Small molecule STAT protein degraders” (THE REGENTS OF THE UNIVERSITY OF MICHIGAN, priority 2020, dated 2026):
# Target: T1, STAT3 (Homo sapiens, UniProt P40763)
# T1 construct: endogenous in cells; host or cells: MOLM-16 (acute leukemia cells)
# Assay: Fluorescent immunoblotting of STAT3 protein in MOLM-16 cells (estimated DC50)
# Format: cell-based
# Settings: MOLM-16, 4 h
# Procedure: In vitro cultured cells or xenograft tumors were lysed 1×Cell Lysis Buffer (Cell Signaling Technology, #9803), resolved by SDS-PAGE NuPAGE gel (Thermo Fisher Scientific), and transferred to a PVDF membrane (Bio Rad). For chemiluminescence immunoblotting, membranes were blocked for 1 h using 5% Blotting-Grade Blocker (#1706404, Bio Rad) in 1×Tris-buffered saline with Tween 20 (TBST, Pierce). Antibodies used were: rabbit mAbs for STAT3 (Cell Signaling Technology, #4368, #12640) and p-STAT3 (Y705) (Cell Signaling Technology, #9245, #52075). HRP conjugated goat anti-rabbit IgG (H+L) (#A27036) secondary antibodies was from Thermo Fisher Scientific. GAPDH (Santa Cruz Technology, sc-47724HRP) and actin (Santa Cruz Technology, sc-8432HRP, sc-47778HRP) were loading controls. For fluorescent immunoblotting, membranes were blocked using Odyssey TBS Blocker Buffer (LI-COR). IRDye 680RD and 800CW Dye-labeled secondary antibodies (LI-COR) were used. The washed membranes were scanned using Odyssey CLx imager (LI-COR). The intensity of Western blot signaling was quantitated using the Odyssey software or Image Studio V5.2 (LI-COR).
# T1 sequence (P40763 whole entry): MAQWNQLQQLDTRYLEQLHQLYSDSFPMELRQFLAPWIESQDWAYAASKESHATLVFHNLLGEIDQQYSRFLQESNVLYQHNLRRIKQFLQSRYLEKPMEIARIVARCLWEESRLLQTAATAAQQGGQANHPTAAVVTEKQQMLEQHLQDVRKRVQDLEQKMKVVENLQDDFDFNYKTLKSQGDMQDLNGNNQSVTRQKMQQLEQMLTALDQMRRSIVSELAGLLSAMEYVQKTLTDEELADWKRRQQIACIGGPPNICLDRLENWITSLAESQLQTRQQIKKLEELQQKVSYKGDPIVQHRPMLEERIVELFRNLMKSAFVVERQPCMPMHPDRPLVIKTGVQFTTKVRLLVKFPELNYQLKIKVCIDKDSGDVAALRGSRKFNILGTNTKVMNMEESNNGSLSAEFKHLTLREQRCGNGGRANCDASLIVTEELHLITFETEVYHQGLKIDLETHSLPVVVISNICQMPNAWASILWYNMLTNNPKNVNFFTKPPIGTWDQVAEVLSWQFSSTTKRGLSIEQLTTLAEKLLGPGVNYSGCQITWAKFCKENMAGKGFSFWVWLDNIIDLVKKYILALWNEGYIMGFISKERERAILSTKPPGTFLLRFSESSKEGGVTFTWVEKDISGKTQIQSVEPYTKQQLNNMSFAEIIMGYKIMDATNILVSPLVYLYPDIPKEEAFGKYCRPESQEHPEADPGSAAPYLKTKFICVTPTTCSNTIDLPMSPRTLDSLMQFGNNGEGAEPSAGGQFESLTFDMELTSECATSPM
row,SMILES,DC50 [nM]
1,"NC(=O)CC[C@H](NC(=O)[C@@H]1CC[C@@H]2CCN(C(=O)CCCCCC#Cc3cccc4c3CN(C3CCC(=O)NC3=O)C4=O)C[C@H](NC(=O)c3cc4cc(C(F)(F)P(=O)(O)O)ccc4s3)C(=O)N21)c1ncc(-c2ccc(Cl)cc2)s1 (stereo partly drawn) [Cpd. No. 7, ((2-(((5S,8S,10aR)-8-(((S)-4-amino-1-(5-(4-chlorophenyl)thiazol-2-yl)-4-oxobutyl)carbamoyl)-3-(8-(2-(2,6-dioxopiperidin-3-yl)-1-oxoisoindolin-4-yl)oct-7-ynoyl)-6-oxodecahydropyrrolo[1,2-a][1,5]diazocin-5-yl)carbamoyl)benzo[b]thiophen-5-yl)difluoromethyl)phosphonic acid]",50
2,"NC(=O)CC[C@H](NC(=O)[C@@H]1CC[C@@H]2CCN(C(=O)CCCCCC#Cc3cccc4c3CN(C3CCC(=O)NC3=O)C4=O)C[C@H](NC(=O)c3cc4cc(C(F)(F)P(=O)(O)O)ccc4s3)C(=O)N21)c1nc(-c2ccc(F)c(F)c2)cs1 (stereo partly drawn) [Cpd. No. 11, ((2-(((5S,8S,10aR)-8-(((S)-4-amino-1-(4-(3,4-difluorophenyl)thiazol-2-yl)-4-oxobutyl)carbamoyl)-3-(8-(2-(2,6-dioxopiperidin-3-yl)-1-oxoisoindolin-4-yl)oct-7-ynoyl)-6-oxodecahydropyrrolo[1,2-a][1,5]diazocin-5-yl)carbamoyl)benzo[b]thiophen-5-yl)difluoromethyl)phosphonic acid]",100
3,"NC(=O)CC[C@H](NC(=O)[C@@H]1CC[C@@H]2CCN(C(=O)CCCCCC#Cc3cccc4c3CN(C3CCC(=O)NC3=O)C4=O)C[C@H](NC(=O)c3cc4cc(C(F)(F)P(=O)(O)O)ccc4s3)C(=O)N21)c1nc(-c2ccc(F)cc2)cs1 (stereo partly drawn) [Cpd. No. 12, ((2-(((5S,8S,10aR)-8-(((S)-4-amino-1-(4-(4-fluorophenyl)thiazol-2-yl)-4-oxobutyl)carbamoyl)-3-(8-(2-(2,6-dioxopiperidin-3-yl)-1-oxoisoindolin-4-yl)oct-7-ynoyl)-6-oxodecahydropyrrolo[1,2-a][1,5]diazocin-5-yl)carbamoyl)benzo[b]thiophen-5-yl)difluoromethyl)phosphonic acid]",100
4,"NC(=O)CC[C@H](NC(=O)[C@@H]1CC[C@@H]2CCN(C(=O)CCCCCC#Cc3cccc4c3CN(C3CCC(=O)NC3=O)C4=O)C[C@H](NC(=O)c3cc4cc(C(F)(F)P(=O)(O)O)ccc4s3)C(=O)N21)c1nc(-c2ccc(Cl)cc2)cs1 (stereo partly drawn) [Cpd. No. 13, ((2-(((5S,8S,10aR)-8-(((S)-4-amino-1-(4-(4-chlorophenyl)thiazol-2-yl)-4-oxobutyl)carbamoyl)-3-(8-(2-(2,6-dioxopiperidin-3-yl)-1-oxoisoindolin-4-yl)oct-7-ynoyl)-6-oxodecahydropyrrolo[1,2-a][1,5]diazocin-5-yl)carbamoyl)benzo[b]thiophen-5-yl)difluoromethyl)phosphonic acid]",100
5,"CC(C)(C)c1cnc([C@H](CCC(N)=O)NC(=O)[C@@H]2CC[C@@H]3CCN(C(=O)CCCCCC#Cc4cccc5c4CN(C4CCC(=O)NC4=O)C5=O)C[C@H](NC(=O)c4cc5cc(C(F)(F)P(=O)(O)O)ccc5s4)C(=O)N32)s1 (stereo partly drawn) [Cpd. No. 15, ((2-(((5S,8S,10aR)-8-(((S)-4-amino-1-(5-(tert-butyl)thiazol-2-yl)-4-oxobutyl)carbamoyl)-3-(8-(2-(2,6-dioxopiperidin-3-yl)-1-oxoisoindolin-4-yl)oct-7-ynoyl)-6-oxodecahydropyrrolo[1,2-a][1,5]diazocin-5-yl)carbamoyl)benzo[b]thiophen-5-yl)difluoromethyl)phosphonic acid]",500
